The values below come from patent US7192941B2, “Estradiol metabolites for the treatment of pulmonary hypertension” (priority 2003, dated 2007).

What all share (assay type): in vivo, male Sprague Dawley rats
Assay [1] deals with monocrotaline-induced pulmonary hypertension. As to the kind of experiment: Monocrotaline-induced pulmonary hypertension in rats: organ weights and hemodynamics (central venous pressure). The note with it: MCT 60 mg/kg s.c., 10 μg/kg/hour by osmotic minipump, 21 days; for adverse consequences associated with monocrotaline treatment (pulmonary hypertension, increased lung weight, cardiac hypertrophy, right ventricular hypertrophy): FIGS. 1-4. As to the method: (§1) A total of twenty-seven, male Sprague Dawley rats (Charles River, Wilmington, Mass.) (378 +/−12 grams) were utilized in this experiment. Animals were housed in the University of Pittsburgh Medical Center animal care facility (temperature 22° C., light cycle 12 hours, relative humidity 55%). Animals were fed Pro Lab RHM 3000 rodent diet (PMI Nutrition, Inc, St Louis, Mo.) and were given water ad libitum. Institutional guidelines for animal welfare were followed, and the Animal Care and Use Committee approved experimental protocols.
(§2) Animals were randomly assigned to receive subcutaneously saline (1 ml/kg, n=6) or monocrotaline (Sigma, St Louis, Mo.) (MCT, 60 mg/kg subcutaneously) (n=21). Monocrotaline is an agent known to induce pulmonary hypertension. Six hours after the initial injection, control animals were implanted with osmotic minipumps (model 2ML4, Alza, Palo Alto, Calif.) containing vehicle (polyethylene glycol 400, 2.5 μl/hour) (Sigma, St Louis, Mo.), whereas MCT treated animals were implanted with osmotic minipumps containing either vehicle (MCT group; n=7), 2-hydroxyestradiol (Steraloids, Newport, R.I.) (10 μg/kg/hour, MCT+2HE group, n=7) or 2-methoxyestradiol (Steraloids, Newport, R.I.) (10 μg/kg/hour, MCT+2ME group, n=7). Assignment to the MCT, MCT+2HE, and MCT+2ME groups was conducted randomly.
After 21 days animals were weighed, anesthetized with pentobarbital (Sigma, St Louis, Mo.) (50 mg/kg) intraperitoneally, and instrumented for measurements of blood pressure, heart rate and central venous pressure. A PE-50 catheter was inserted into the right jugular vein and advanced approximately one inch and connected to a low-pressure analyzer (LPA, Micro-Med., Inc., Louisville Ky.) for continuous measurements of central venous pressure. […]
Animals were killed by an overdose of anesthetic, and the heart and lungs were removed and weighed. […] Both ventricles were weighed and the right ventricle to left ventricle plus septum ratio was calculated. […]

The subject of assay [2] is proliferating cell nuclear antigen (PCNA). As to the kind of experiment: Cell proliferation (PCNA immunostaining) in lungs, right ventricle and main pulmonary artery of monocrotaline-treated rats. The note with it: vs MCT group, 10 μg/kg/hour, 21 days, p<0.001; for inhibition of proliferative response (PCNA staining) in the lungs: FIG. 6A; for inhibition of proliferative response (PCNA staining) in the right ventricle: FIG. 6B; for inhibition of proliferative response (PCNA staining) in the main pulmonary artery: FIG. 6C. As to the method: as §1, §2
The fixed specimens were embedded in paraffin and cut into 4-micron-thick sections for subsequent light microscopy and immunohistochemical analysis.
For the assessment of proliferation, the proliferating cell nuclear antigen (PCNA) was labeled using the primary monoclonal mouse antibody ( 1/200 dilution; Dako, Carpenteria, Calif.) and VEGF expression was measured using a rabbit polyclonal antibody ( 1/50 dilution, Lab Vision, Fremont, Calif.). A polyclonal ED1 antibody (Serotec, Raleigh, N.C.) specific for the monocyte/macrophage cytoplasmatic antigen was used to label vascular (main pulmonary artery) and pulmonary macrophages. For measurement of nonspecific staining, the primary antibody was replaced with phosphate buffered saline (PBS). Sections were washed and further developed according to the directions of the manufacturer (Dako Corporation, Carpinteria, Calif.) using the LSAB2 kit that contained a second antibody linked to […]. Immunochemical staining for PCNA and VEGF were assessed quantitatively with a SAMBA 4000 image analyzer (Image Products International, Chantilly, Va.) using specialized computer software designed for immunostaining analysis (Immuno-Analysis, version 4.1, Microsoft, Richmond, Wash.). The software set density threshold values by averaging several fields on the negative control tissues in which the primary antibody was replaced with PBS. Background subtraction was then performed on every tissue. Ten high power fields (×400) were assessed for staining density, wall thickness or positively marked cells for ED-1. The results for PCNA and VEGF are reported as the labeling index, which represents the percentage of the total examined area that stained positively. Staining intensity of positive areas was also assessed (mean optical density), and a mean quick score was then calculated (mean optical density×labeling index). The inflammatory response data are expressed as the total number of ED1+ cells per ten high power fields
Statistical analyses were performed using the Number Cruncher Statistical software program (Kaysville, Utah). Group comparisons were performed by a one-factor analysis of variance (1-F ANOVA), followed by post-hoc comparison using the Fisher's LSD test. All data are presented as mean ±S.E.M.

The test system of assay [3] is vascular endothelial growth factor (VEGF) expression. As to the kind of experiment: VEGF expression (immunohistochemistry) in lungs of monocrotaline-treated rats. The note with it: MCT rats, 10 μg/kg/hour, 21 days, mean ±S.E.M., Control 34.2±2.2, MCT 42.8±2.6, p=0.482. As to the method:
as §1
Animals were randomly assigned to receive subcutaneously saline (1 ml/kg, n=6) or monocrotaline (Sigma, St Louis, Mo.) (MCT, 60 mg/kg subcutaneously) (n=21). […]
For the assessment of proliferation, the proliferating cell nuclear antigen (PCNA) was labeled using the primary monoclonal mouse antibody ( 1/200 dilution; Dako, Carpenteria, Calif.) and VEGF expression was measured using a rabbit polyclonal antibody ( 1/50 dilution, Lab Vision, Fremont, Calif.). […] Immunochemical staining for PCNA and VEGF were assessed quantitatively with a SAMBA 4000 image analyzer (Image Products International, Chantilly, Va.) using specialized computer software designed for immunostaining analysis (Immuno-Analysis, version 4.1, Microsoft, Richmond, Wash.). […] Ten high power fields (×400) were assessed for staining density, wall thickness or positively marked cells for ED-1. […]

The subject of assay [4] is small size pulmonary arteries. As to the kind of experiment: Vascular remodeling: wall/media thickness of small size pulmonary arteries (smooth muscle alpha-actin staining) in monocrotaline-treated rats. The note with it: vs MCT group (wall thickness increased by 87% vs control); 10 μg/kg/hour, 21 days; p<0.001; FIG. 9. As to the method: as §1
Animals were randomly assigned to receive subcutaneously saline (1 ml/kg, n=6) or monocrotaline (Sigma, St Louis, Mo.) (MCT, 60 mg/kg subcutaneously) (n=21). Monocrotaline is an agent known to induce pulmonary hypertension. […]
For assessment of vascular remodeling, vascular smooth muscle cells in pulmonary arteries were stained with smooth muscle alpha-actin Ab-1 mouse monoclonal antibody ( 1/100 dilution, Lab Vision, Fremont, Calif.). The wall and media thickness were measured in small size pulmonary arteries (50–200 microns) using commercial imaging software. Only vessels with an approximately circular profile were analyzed. […]

As to `C[C@]12CC[C@@H]3c4cc(O)c(O)cc4CC[C@H]3[C@@H]1CC[C@@H]2O` [2HE, estra-1,3,5 (10)-triene-2,3,17-triol (17β)], the “adverse consequences associated with monocrotaline treatment (pulmonary hypertension, increased lung weight, cardiac hypertrophy, right ventricular hypertrophy)” value in assay [1] is on record as “did not demonstrate the same level of adverse consequences”. For the same compound, in assay [2], the “inhibition of proliferative response (PCNA staining) in the lungs” value is on record as −60%, the “inhibition of proliferative response (PCNA staining) in the right ventricle” value is −81% and the “inhibition of proliferative response (PCNA staining) in the main pulmonary artery” value was −83%. Besides, the “VEGF labeling index (percent of the lung tissue stained positive for VEGF)” value in assay [3] is given as 37.6±3.3%. Moreover, the “attenuation of MCT-induced hypertrophy of the media (wall thickness, small size pulmonary arteries)” value in assay [4] was −50%.
Take `COc1cc2c(cc1O)CC[C@@H]1[C@@H]2CC[C@]2(C)[C@@H](O)CC[C@@H]12` [2ME, estra-1,3,5 (10)-triene-2-methoxy-3, 17-diol (17β)]: in assay [1] (FIG. 5), the central venous pressure entry is on record as “especially effective at reducing central venous pressure”. Moreover, the “adverse consequences associated with monocrotaline treatment (pulmonary hypertension, increased lung weight, cardiac hypertrophy, right ventricular hypertrophy)” value in assay [1] was “did not demonstrate the same level of adverse consequences”. In assay [2], the “inhibition of proliferative response (PCNA staining) in the lungs” value was −70%, the “inhibition of proliferative response (PCNA staining) in the right ventricle” value is −77% and the “inhibition of proliferative response (PCNA staining) in the main pulmonary artery” value is −94%. Besides, the “VEGF labeling index (percent of the lung tissue stained positive for VEGF)” value in assay [3] amounted to 37.6±3.9%. In addition, in assay [4], the “attenuation of MCT-induced hypertrophy of the media (wall thickness, small size pulmonary arteries)” value is −40%.
